{
  "source": "patent US20240293350A1",
  "about": "“DEVELOPMENT OF AN INNOVATIVE INHALATION FORMULATION OF NAFAMOSTAT MESYLATE FOR THE MANAGEMENT OF COVID-19” (EGE UNIVERSITESI, priority 2020, published 2024)",
  "origin": "cited, not measured here",
  "key": {"NL63 virus": {"test_system": "NL63 virus", "conditions": "after infection with NL63 virus, gut-on-a-chip model; compared with Remdesivir"}, "SARS-COV-2 [1]": {"test_system": "SARS-COV-2", "conditions": "administered after infection with SARS-COV-2; compared with Remdesivir"}, "coronavirus": {"test_system": "coronavirus", "conditions": "primary human mucociliary airway epithelial cells"}, "SARS-COV-2 [2]": {"test_system": "SARS-COV-2", "conditions": "Simian Vero E6 cells infected with SARS-COV-2, cell culture"}},
  "note": "Counter-ions that a name gives are not always drawn.",
  "data": [
    {"smiles": "N=C(N)c1ccc2cc(OC(=O)c3ccc(N=C(N)N)cc3)ccc2c1", "note": "[NM, nafamostat mesylate]", "values": [
      {"measurement": "effectiveness after infection", "setting": "NL63 virus", "result": "much more effective after infection with the NL63 virus than Remdesivir"},
      {"measurement": "viral load", "setting": "SARS-COV-2 [1]", "result": "decreased the viral load more than Remdesivir"},
      {"measurement": "antiviral activity", "setting": "coronavirus", "result": "demonstrated antiviral activity"},
      {"measurement": "prevention of infection of cells", "setting": "SARS-COV-2 [2]", "result": "prevent cells from being infected with the virus"}
    ]}
  ]
}
